Test results taken from US20060286574A1 (priority 2005, published 2006).

Key:
E. coli [1] = format: cell-based; settings: for enhancement of the activity of ciprofloxacin: at 25 μM
E. coli ΔrecB strains = format: cell-based; settings: putative ΔrecB transductants and parental ΔrecB strain
E. coli [2] = tested on: E. coli
K. pneumoniae = format: in vivo; settings: mice; wild type vs ΔrecB K. pneumoniae; 0.064-15 mg/kg/day ciprofloxacin; 48 hour endpoint; FIG. 6
P. aeruginosa = test: Effect of gam expression on ciprofloxacin efficacy in P. aeruginosa; format: cell-based
E. coli [3] = test: Effect of gam expression on ciprofloxacin efficacy in E. coli; format: cell-based

Cn1c2ccccc2n2c3ncccc3c(=O)c(C#N)c12 [Formula IIb]
enhancement of the activity of ciprofloxacin (E. coli [1]): enhanced the activity of ciprofloxacin

Cn1c2ccccc2n2c3cnccc3c(=O)c(C#N)c12 [Formula IIc]
enhancement of the activity of ciprofloxacin (E. coli [1]): enhanced the activity of ciprofloxacin

Nc1ccc2noc3c2c1C(=O)c1ccccc1-3 [Formula Ia]
MIC shift in ciprofloxacin responsiveness (E. coli [1]): 10 ×

CO[C@@]12[C@H](COC(N)=O)C3=C(C(=O)C(C)=C(N)C3=O)N1C[C@@H]1N[C@@H]12 [Mitomycin C]
Mitomycin C MIC of ΔrecB strains, lower compared to recB+ strains (E. coli ΔrecB strains): about 8 fold

O=C(O)c1cn(C2CC2)c2cc(N3CCNCC3)c(F)cc2c1=O [ciprofloxacin]
cells killed (E. coli [2]): 99% | reduction in CFU in thigh (log CFU/gm of thigh) (K. pneumoniae): significantly greater reduction in CFU for the recB mutants relative to the wild type strain

B1: lambda gam: protein used by λ phage to inhibit E. coli RecB; overexpressed from an arabinose-inducible vector (protein, UniProt P03702 1-138, looked up)
Host-nuclease inhibitor …: MDINTETEIKQKHSLTPFPVFLISPAFRGRYFHSYFRSSAMNAYYIQDRLEAQSWARHYQQLAREEKEAELADDMEKGLPQHLFESLCIDHLQRHGASKKSITRAFDDDVEFQERMAEHIRYMVETIAHHQVDIDSEV
effect of lambda gam overexpression on ciprofloxacin sensitivity (P. aeruginosa; strain lacking the RecB target (RTC1019) relative to empty vector strain (RTC1016)): no effect | decrease in the ciprofloxacin MIC on overexpression of lambda gam (P. aeruginosa; wild-type P. aeruginosa (RTC1017) and gyrA(S831) mutant (RTC1018) relative to empty vector controls (RTC1014, RTC1015)): 2-4 fold | effect of lambda gam overexpression on ciprofloxacin sensitivity (E. coli [3]; strain lacking the RecB target (RTC0148) relative to empty vector strain (RTC0147)): no effect | decrease in the ciprofloxacin IC50 on overexpression of lambda gam (E. coli [3]; wild-type E. coli (RTC0142) and gyrA(S83L) (RTC0144) relative to empty vector controls (RTC0141, RTC0143)): 5-8 fold
